Experimental data taken from patent US9670550B2, “Method for examination of carcinogenic risk” (JAPANESE FOUNDATION FOR CANCER RESEARCH, priority 2013, dated 2017).

Experiments:
[1] = tested on: liver cancer; experiment: Liver cancer development in mice fed high-fat diets and given antibiotic cocktail, with oral deoxycholic acid; format: in vivo; conditions: 40 μg/g body weight orally three times a week, high-fat diet + antibiotic cocktail
Description: From the 13th week after the start of the raising, the antibiotic cocktail was administered to mice fed high-fat diets, which were then further raised. To these mice, 40 μg/g body weight of deoxycholic acid (DCA) or only a vehicle as a control was orally administered three times a week (FIG. 5A). […] The cancer was rarely developed in the control mouse group given only the vehicle, and even if the cancer was developed, its tumor size was small. On the other hand, the deoxycholic acid administration group had multiple cancer (25 or more tumors per individual), and also, its size was large.

[2] = tested on: liver cancer; experiment: Liver cancer development in DMBA-treated mice fed high-fat diets, antibiotic given in drinking water; format: in vivo; conditions: high-fat diet, antibiotic in drinking water from 13 weeks old, dissected at the 30th week
Source text: An acetone solution containing 0.5% of the carcinogenic substance DMBA (7,12-dimethylberiz[a]anthracene) was applied once to the backs of wild-type (C57BL/6) neonatal mice. The neonatal mice were raised together with their mother mouse by feeding with normal diets (ND) or high-fat diet (HFD) until 4 weeks old. The high-fat diets used were D12492 (Rodent Diet with 60% kcal % Fat; Research Diets, Inc., USA). The neonatal mice were weaned at 4 weeks old and subsequently raised with normal diets or high-fat diet. At 30 weeks old, their livers and lungs were excised, and the presence or absence of cancer development was analyzed. The average body weight of the mice at the time of dissection was 33 g for the mice fed normal diets and 51 g for the mice fed high-fat diets. The mice fed high-fat diets had approximately 1.5 times the body weights of the mice fed normal diets.
DMBA was applied to wild-type neonatal mice, followed by high-fat diet feeding. From 13 weeks old, an antibiotic cocktail (4Abx, antibiotic cocktail administration group) or vancomycin (VCM, vancomycin administration group) mixed with drinking water was administered to the mice. At the 30th week after the start of the raising, their livers were excised, and liver cancer development was analyzed. […]
The mice of each group were dissected at the 30th week, and liver cancer development was analyzed (FIGS. 3C and 3D).

[3] = tested on: intestinal bacteria; experiment: Level of gene encoding intestinal bacterial 16S rRNA after antibiotic administration; format: in vivo; conditions: 17 weeks after antibiotic administration, 30 weeks after birth; high-fat diet; in drinking water; 3 mice per group
Description: DMBA was applied to wild-type neonatal mice, followed by high-fat diet feeding. From 13 weeks old, an antibiotic cocktail (4Abx, antibiotic cocktail administration group) or vancomycin (VCM, vancomycin administration group) mixed with drinking water was administered to the mice. At the 30th week after the start of the raising, their livers were excised, and liver cancer development was analyzed. On the other hand, the raising of a control group was continued in the same way as the aforementioned raising up to the 13th week. The antibiotic cocktail contained ampicillin (1 g/l), neomycin (1 g/l), metronidazole (1 g/l), and vancomycin (500 mg/l). In the case of administering vancomycin alone, 500 mg/l vancomycin was administered.

[4] = tested on: gut microbiota; experiment: Gut microbiota analysis of feces by PCR of 16S rRNA gene; format: in vivo, mice
Description: In this Example, in order to search for an intestinal bacterium related to cancer development, how the gut microbiota was atlered was analyzed (FIG. 4). In the experimental schedule shown in FIG. 3A, 3 groups were used: a group fed normal diets, a group fed high-fat diets, and a group fed high-fat diets and also given vancomycin. At the 30th week after the start of the raising, their feces were recovered, and the gut microbiota was analyzed.
The gut microbiota was identified by PCR analysis (Non Patent Literatures 11 and 12). Specifically, DNA was extracted from the feces and purified. The gene encoding 16S rRNA in many types of bacteria was amplified by PCR using universal primers. The V1-V4 hypervariable regions were further amplified, followed by identification.

liver tumor size ([1]; n=3)	tumor number per individual (liver) ([1]; n=3)	liver tumor development ([1]; vs vehicle)	SMILES	liver cancer development (tumor number and size) as compared with the control [2]	amount of intestinal bacteria (level of gene encoding intestinal bacterial 16s rRNA) [3]	Gram-negative microbiota, proportion on average ([4]; HFD+VCM group, average (FIG. 4))	cluster XI of the genus Clostridium in gut microbiota ([4]; feces at the 30th week, high-fat diets + vancomycin, n=2)
large	≥ 25 tumors per individual	developed a large number of liver tumors	C[C@H](CCC(=O)O)[C@H]1CC[C@H]2[C@@H]3CC[C@@H]4C[C@H](O)CC[C@]4(C)[C@H]3C[C@H](O)[C@]12C [deoxycholic acid]	–	–	–	–
–	–	–	CN[C@H](CC(C)C)C(=O)N[C@H]1C(=O)N[C@@H](CC(N)=O)C(=O)N[C@H]2C(=O)N[C@H]3C(=O)N[C@H](C(=O)N[C@H](C(=O)O)c4cc(O)cc(O)c4-c4cc3ccc4O)[C@H](O)c3ccc(c(Cl)c3)Oc3cc2cc(c3O[C@@H]2O[C@H](CO)[C@@H](O)[C@H](O)[C@H]2O[C@H]2C[C@](C)(N)[C@H](O)[C@H](C)O2)Oc2ccc(cc2Cl)[C@H]1O [vancomycin]	developed no liver cancer or developed liver cancer with a smaller tumor number and a smaller size	decreased into a very small level	99%	0%
